Test results: publication PMC8049054, “Systematic Assessment of Fragment Identification for Multitarget Drug Design” (Chemmedchem, 2021)
Marks after values point to notes of the source that are not given here.

What was measured:
[1] = test system: T1, farnesoid X receptor (FXR); experiment: Differential scanning fluorimetry (DSF) screen on FXR; format: binding, human; settings: 500 μM fragment, mean of duplicates
T1 construct: made in house; host or cells: E. coli BL21 (DE3)
Excerpt: For the primary screen of this fragment library, we employed differential scanning fluorimetry (DSF, also known as thermal shift). DSF is generally applicable to a large panel of protein targets and provides a robust, low‐cost screening technology for fragment‐based approaches. ^[20] […] We performed an initial fragment screen on all five targets by DSF.
Figure S3: SDS page of the purified proteins (proteins RXRα and FXR after TEV cleavage) using a 14% polyacrylamide gel, which was stained with coomassi. Precision Plus Protein™ Unstained Protein Standard s (Bio-Rad Laboratories, Inc. ) was used […]
All experiments were performed as duplicates using MicroAmp fast 96 -well plates. Each plate contained 80 different compound wells and 16 DMSO control wells. First 0.8 µl of a 25 mM Preswick Library Fragment dilution in DMSO or pure DMSO were placed in each of the well (final concentration 500 µM). Then 39.2 µl of the master mi x (containing protein, Triton x -100, SYPRO® Orange Protein Gel Stain and buffer that corresponds to the tested protein) were added.
Table S4: Final concentrations in DSF experiments:
Protein Final concentrations under screening conditions
The measurements were performed using a iCycler iQ™ Single -Color Real Time PCR device with a heat rate of 1 °C per min, an excitation wavelength of 490 nm and an emission wavelength of 570 nm. The first derivation calculated by MyiQ Op tical Software 1.0 was analyzed using Microsoft Office Excel 2013 by comparing the maxima. A shift of 1 °C (in case of 5 -LOX 0.9°C) or more compared to the DMSO control were assumed as potentially binding of the fragment.
(1 picture or pasted object on this page, not shown here)

[2] = target: T2, soluble epoxide hydrolase (sEH) (Homo sapiens, UniProt P34913); experiment: sEH-H activity assay (fluorogenic substrate PHOME); format: biochemical; settings: for sEH LE: ligand efficiency calculated from IC50; for IC50: mean±standard deviation of three independent experiments
T2 construct: made in house; host or cells: E. coli BL21 (DE3)
T2 sequence (P34913 1-555): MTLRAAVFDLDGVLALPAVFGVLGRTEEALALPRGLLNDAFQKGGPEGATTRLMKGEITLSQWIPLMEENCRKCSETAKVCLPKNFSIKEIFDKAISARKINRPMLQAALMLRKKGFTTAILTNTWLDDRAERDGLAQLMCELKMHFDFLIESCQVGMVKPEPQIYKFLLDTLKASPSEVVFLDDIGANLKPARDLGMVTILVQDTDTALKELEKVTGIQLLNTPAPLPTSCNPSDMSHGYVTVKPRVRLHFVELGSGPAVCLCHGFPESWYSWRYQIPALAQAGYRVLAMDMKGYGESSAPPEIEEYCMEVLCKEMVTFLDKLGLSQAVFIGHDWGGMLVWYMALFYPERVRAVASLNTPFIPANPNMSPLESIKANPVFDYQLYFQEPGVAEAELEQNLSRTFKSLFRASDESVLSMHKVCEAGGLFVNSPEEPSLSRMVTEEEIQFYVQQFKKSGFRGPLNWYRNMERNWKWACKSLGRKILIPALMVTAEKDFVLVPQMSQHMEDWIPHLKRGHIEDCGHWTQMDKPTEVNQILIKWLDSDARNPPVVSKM
Experimental: For hit validation, we employed secondary assays with orthogonal readouts to confirm fragment activities. Biochemical activity assays were chosen for the enzymes sEH, LTA4H, and 5‐LOX. […] RXRα and FXR modulation was assessed in cell‐based hybrid reporter gene assays. All ten compounds were tested at a single concentration of 500 μM in the sEH and LTA4H activity assays and with a concentration of 100 μM on 5‐LOX, RXRα, and FXR. Fragments showing an inhibition greater than 50 % (sEH‐H and LTA4H) or greater than 70 % (5‐LOX) as well as the hits determined in the DSF experiments were further characterized in full concentration‐response curves between 0.1 and 1000 μM. […] As alternative cell‐free assay we employed isothermal titration calorimetry (ITC) to determine binding affinity of the fragments towards the LBDs of both nuclear receptors. ITC was performed with a protein concentration of 50 μM and compound concentrations of 250 μM.
The 10 fragments showing dual activity in the DSF experiments were validated by functional assay screening with a fixed concentration of 500 µM in case of sEH-H and LTA4H, 100 µM in case of 5-LOX and 30 µM, 10 µM and 5 µM in case of FXR and […]
% (5-LOX) as well as the hits determined in the DSF experiments were further measured with concentrations between 1000 µM and 0.1 µM (sEH-H and LTA4H) and between 300 µM and 1 µM (5-LOX). The sEH and LTA4H activity assays were performed as triplicate and repeated 3 times. The 5-LOX activity assay was performed with one point per concentration and repeated 3 times Raw data was first analyzed in Microsoft Office Excel (2013), before IC50 curves were plotted and further analyzed using GraphPad Prism 7 and GraphPad Prism 8 for the shown graphs .
The eight approved drugs were measured in the orthogonal assay systems analogous to the fragments. The approved drugs were […]
For the sEH-H and LTA4H, they were measured as triplicate in concentrations between 1000 µM and 1 µM and each measurement was repeated three times. For the 5-LOX they were measured as single point measurement in three different experiments with concentrations between 300 µM and 1 µM. For […]
Raw data was processed according to the fragments.
The sEH-H activity assay was performed adapted from Hahn et al.5 and Lukin et al.6. In short 1 µl of compound dilution in DMSO or pure DMSO (for the positive and negative control) was placed in a black 96-well plate (Thermo Scientific™ Nunc™ F96 MicroWell™ Black Polystyrene Plate) and then 89 µl of protein-mix or buffer mix (without protein as negative control) were added and the mixture was incubated for 30 min at room temperature. 10 µl of 0.6 mM 3-phenyl-cyano(6-methoxy-2-naphthalenyl)methylester-2-oxiraneacetic acid (PHOME) were added to every well. The Plate was measured every minute for 45 min. Final concentration per well was 3 nM sEH-Fl, 0.001 % Triton X-100, 25 mM Bis-tris, 0.1 mg/ml BSA, pH = 7.0, 1.6% DMSO […]

| Compound | DSF/ΔT m FXR [1] | sEH LE [2] | IC50 [2] |
| --- | --- | --- | --- |
| Oc1ccc2cc[nH]c2c1 [Compound 5] | 1.2±0.0 °C | – | – |
| Cc1cc(=O)n(-c2ccc(C)c(C)c2)[nH]1 [Compound 2] | 0.3±0.0 °C | 0.35 kcal/mol | 135 ± 9.1 µM |
| c1ccc(N2CCNCC2)nc1 [Compound 1] | −0.1±0.0 °C | – | – |
| Oc1ccc(-c2ccc(F)cc2F)cc1 [Compound 9] | 21.7±3.5 ^[a] °C | 0.36 kcal/mol | 108 ± 11 µM |
| Cc1ccccc1C(=O)Nc1ccccc1 [Compound 6] | −1.2±0.7 °C | 0.31 kcal/mol | 226 ± 18.5 µM |
| Clc1ccc2c(c1)Nc1ccccc1CC2 [Compound 8] | – | 0.33 kcal/mol | 141 ± 34.1 µM |
| Fc1ccc(-c2c[nH]c3ccccc23)cc1 [Compound 10] | −11.6±2.1 °C | 0.33 kcal/mol | 120 ± 22.4 µM |
| CCCCOc1cc(C(=O)OC)ccc1N [Compound 3] | 1.4±0.7 °C | <0.3 kcal/mol | > 300 µM |
| CCN(Cc1ccccc1)c1ccccc1 [Compound 7] | – | – | 56.6 ± 5.4 µM |
| Oc1ccc(Cc2ccccc2)cc1 [Compound 4] | – | – | 151 ± 5.8 µM |
